Assay results from PMC4545913, “Dual EZH2 and EHMT2 histone methyltransferase inhibition increases biological efficacy in breast cancer cells” (Clinical Epigenetics, 2015).

Tests used:
Assay type in all cases: cell-based
[1] = test system: DB; assay: Lymphoma cell growth, cell counting following propidium iodide staining; conditions: Homo sapiens, EZH2 Mutant Y646N, 48 h, PI negative cell count
Protocol: (§1) For clonogenic assays, cells were treated with compound for 48 h, media were removed and replaced with fresh media for a further 12 days to measure colony formation. For cell viability assays, lymphoma cells were plated at 20,000 cells in 200 μl per well in U-bottom 96 well plates in RPMI medium +20 % FCS. Cells were re-suspended 48 h later, diluted 10-fold in PBS + propidium iodide (PI) and the concentration of PI negative cells was counted using an Attune flow cytometer with autosampler. Breast cancer cells were seeded at a density of 10,000 cells/well in a sterile 96 clear-well plate with 150 μl of DMEM (+10 % FCS and 2 mM L-Glutamine). Each compound treatment was performed in triplicate for 72 h at concentrations of 100 nM and 1, 5, 10 and 50 μM in 100 μl of full-medium. After 72 h, 20 μl of MTT solution (3 mg of MTT Formazan, Sigma/1 ml PBS) was added to the medium and incubated for 4 h at 37 °C in a CO2 incubator. The MTT-product was solubilised with 100 μl DMSO, and for 1 h, incubated in the dark at room temperature. The optical density was read at 570 nm with PHERAstar.

[2] = test system: DOHH2; assay: as above; conditions: Homo sapiens, DOHH-2, EZH2 W.T., 48 h, PI negative cell count
Protocol: as §1

[3] = test system: SC1; assay: as above; conditions: Homo sapiens, SC-1, EZH2 W.T., 48 h, PI negative cell count
Protocol: as §1

[4] = test system: SUDLH8; assay: as above; conditions: EZH2 W.T. (amplified), 48 h, PI negative cell count
Protocol: as §1

[5] = test system: WILL1; assay: as above; conditions: WILL-1, EZH2 W.T., 48 h, PI negative cell count
Protocol: as §1

[6] = test system: WSU-FSCLL; assay: as above; conditions: EZH2 W.T., 48 h, PI negative cell count
Protocol: as §1

[7] = test system: H3K27me3 and H3K9me3; assay: Western analysis of global histone marks in MDA-MB-231 cells; conditions: range of doses
Protocol: MDA-MB-231 cells seeded in 6 well plates at a cell density of 3 x 10^5 were treated with HKMTI-1-005 (1–7.5uM) for 48 h. Following lysis in Triton Extraction Buffer (TEB, PBS containing 0.5 % Triton ×100 (v/v), 1/1000 protease inhibitor), nuclei were re-suspended in 0.2 N HCL at a density of 4 x 10^7 nuclei per millilitre and incubated overnight at 4 °C to acid-extract the histones, before being centrifuged at 6500g for 10 min at 4 °C. Protein concentration was determined using the Bradford assay. H3K27me3, H3K9me3, H3K9me2, H3K9me and total H3 protein expression levels in the histone extract samples were determined using Western blot analysis using H3K27me3 (1:1000; Abcam), H3K9me3 (1:1000; Abcam), H3K9me (1:1000) and H3 (1:2000; Abcam) antibodies. After washing, the membrane was incubated with a horseradish peroxidase-labelled secondary antibody (1 h, room temperature). The membrane was incubated for 1 min with 5 mL of Pierce ECL Western blotting substrate (Thermo Scientific). Images were captured using Konica Minolta SRX101A Tabletop X-Ray film processor.

[8] = test system: H3K27me3 and H3K9me3 at target genes; assay: Chromatin immunoprecipitation (ChIP-PCR) in MDA-MB-231 cells; conditions: MDA-MB-231, 2.5 μM, 24 h
From the text: Fig. 3 Effects of hit compounds on RNA levels and histone marks. a Sybr green real-time PCR mRNA level measurement of EZH2 target genes and executing enzymes following a 48-h compound treatment at different concentrations of MDA-MB-231 cells. Measurements marked with an ‘*’ are below detection limit, most likely due to cell death. […] Error bars represent the mean ± SD of experiment performed in technical triplicate. b Sybr green real-time PCR measurement of the FBXO32 transcription start site and KRT17 promoter region following chromatin immunoprecipitation, using antibodies to the histone marks shown, of MDA-MB-231 cells treated with three selected compounds at 5 μM for 72 h. […] The fold difference to the untreated sample is shown. Each IP-value has been determined as the relative increase to the no-antibody control and then normalised to GAPDH levels
Fig. 4 Compound-induced upregulation of EZH2-repressed target genes. a Enrichment scores for differential expression of EZH2 targets on treatment with panel of compounds. […] Each IP-value has been determined as the relative increase to the no-antibody control and is shown as fold difference relative to the untreated control. d Western blot showing levels of modified histones, following a 48-h treatment with HKMTI-1-005 at different doses. […]

IC50 [1]: < 1 µM
IC50 [2]: 3.26 µM
IC50 [3]: 3.71 µM
IC50 [4]: < 1 µM
IC50 [5]: 5.6 µM
IC50 [6]: 3.41 µM
SMILES: COc1cc2nc(N3CCN(C)CC3)nc(NC3CCN(Cc4ccccc4)CC3)c2cc1OC [HKMTI-1-005]
Global levels of H3K27me3 and H3K9me3 (Western) [7]: reduced
H3K27me3 and H3K9me3 at the SPINK1 transcription start site (ChIP-PCR) [8]: reduction in both H3K27me3 and H3K9me3
